Measured values reported in ChEMBL document CHEMBL1140940, “Pyrido[2,3-d]pyrimidin-5-ones: a novel class of antiinflammatory macrophage colony-stimulating factor-1 receptor inhibitors” (J Med Chem, 2009).
The source made the active and inactive calls. The calls are words filed in the database; no cut-off is given here.

What was measured:
[1] = test system: Rattus norvegicus; assay: Antiinflammatory effect in Freund's complete adjuvant-induced Lewis rat arthritis model assessed as prevention of osteoclastogenesis at 1 mg/kg, po twice daily administered on day 8 post adjuvant challenge measured on day 21 post adjuvant challenge relative to control; format: functional, organism-based; design: dose 1 mg/kg
[2] = Clearance in monkey at 2 mg/kg, iv; format: ADME, organism-based, Macaca mulatta; design: dose 2 mg/kg, route intravenous; conditions: rhesus monkey, in vivo
[3] = test system: Rattus norvegicus; assay: Inhibition of ankle swelling in Freund's complete adjuvant-induced Lewis rat arthritis model at 10 mg/kg, po twice daily administered on day 8 post adjuvant challenge measured on day 21 post adjuvant challenge relative to control; format: functional
[4] = Oral bioavailability in monkey at 10 mg/kg; format: ADME, organism-based, Macaca mulatta; conditions: rhesus monkey, in vivo
[5] = test system: Rattus norvegicus; assay: Antiinflammatory effect in Freund's complete adjuvant-induced Lewis rat arthritis model assessed as prevention of osteoclastogenesis at 3 mg/kg, po twice daily administered on day 8 post adjuvant challenge measured on day 21 post adjuvant challenge relative to control; format: functional, organism-based; design: dose 3 mg/kg
[6] = Half life in mouse at 2 mg/kg, iv; format: ADME, organism-based; design: dose 2 mg/kg, route intravenous; conditions: in vivo
[7] = test system: Rattus norvegicus; assay: Antiinflammatory effect in Freund's complete adjuvant-induced Lewis rat arthritis model assessed as prevention of bone erosion at 3 mg/kg, po twice daily administered on day 8 post adjuvant challenge measured on day 21 post adjuvant challenge relative to control; format: functional, organism-based; design: dose 3 mg/kg
[8] = Metabolic stability in human liver microsomes after 10 mins; format: ADME, Microsome; conditions: read-out: Stability
[9] = Half life in dog at 2 mg/kg, iv; format: ADME, organism-based, Canis lupus familiaris; design: dose 2 mg/kg, route intravenous; conditions: in vivo
[10] = Cmax in mouse at 10 mg/kg, po; format: ADME, organism-based; design: dose 10 mg/kg, route oral; conditions: in vivo
[11] = test system: Rattus norvegicus; assay: Antiinflammatory effect in Freund's complete adjuvant-induced Lewis rat arthritis model assessed as prevention of bone lesion development at tibial tarsal joint at 1 mg/kg, po twice daily administered on day 8 post adjuvant challenge measured on day 21 post adjuvant challenge by microradiography; format: functional, organism-based; design: dose 1 mg/kg
[12] = Oral bioavailability in Sprague-Dawley rat at 10 mg/kg; format: ADME, organism-based; conditions: in vivo
[13] = Cmax in Sprague-Dawley rat at 10 mg/kg, po; format: ADME, organism-based; design: dose 10 mg/kg, route oral; conditions: in vivo
[14] = Plasma concentration in Freund's complete adjuvant-induced Lewis rat arthritis model at 3 mg/kg, po twice daily administered on day 8 post adjuvant challenge measured 7 days after last dose; format: ADME, organism-based; design: dose 3 mg/kg, route oral
[15] = test system: Rattus norvegicus; assay: Reversal of ankle swelling in streptococcal cell wall-induced Lewis rat chronic arthritis model at 1 mg/kg, po twice daily administered on day 19 post streptococcal cell wall challenge; format: functional, organism-based; design: dose 1 mg/kg
[16] = target: Platelet-derived growth factor receptor beta (Homo sapiens, UniProt P09619); assay: Inhibition of PDGFRbeta by fluorescence polarization competition immunoassay
[17] = Metabolic stability in rat liver microsomes after 10 mins; format: ADME, Microsome; conditions: read-out: Stability
[18] = Clearance in dog at 2 mg/kg, iv; format: ADME, organism-based, Canis lupus familiaris; design: dose 2 mg/kg, route intravenous; conditions: in vivo
[19] = test system: Rattus norvegicus; assay: Toxicity in rat assessed as tolerability at 10 mg/kg; format: organism-based; design: dose 10 mg/kg; conditions: in vivo
[20] = Volume of distribution at steady state in Sprague-Dawley rat at 2 mg/kg, iv; format: ADME, organism-based; design: dose 2 mg/kg, route intravenous; conditions: in vivo, read-out: Vdss
[21] = target: Mast/stem cell growth factor receptor Kit (Homo sapiens, UniProt P10721); assay: Inhibition of KIT by fluorescence polarization competition immunoassay
[22] = test system: Rattus norvegicus; assay: Reversal of ankle swelling in streptococcal cell wall-induced Lewis rat chronic arthritis model at 3 mg/kg, po twice daily administered on day 19 post streptococcal cell wall challenge; format: functional, organism-based; design: dose 3 mg/kg
[23] = Half life in Sprague-Dawley rat at 10 mg/kg, po; format: ADME, organism-based; design: dose 10 mg/kg, route oral; conditions: in vivo
[24] = test system: Rattus norvegicus; assay: Inhibition of ankle swelling in Freund's complete adjuvant-induced Lewis rat arthritis model at 3 mg/kg, po twice daily administered on day 8 post adjuvant challenge measured on day 21 post adjuvant challenge relative to control; format: functional
[25] = Plasma concentration CSF1-induced B6C3F1 mouse at 3 mg/kg, po after 6 hrs; format: ADME, organism-based; design: dose 3 mg/kg, route oral
[26] = test system: Rattus norvegicus; assay: Inhibition of ankle swelling in Freund's complete adjuvant-induced Lewis rat arthritis model at 1 mg/kg, po twice daily administered on day 8 post adjuvant challenge measured on day 21 post adjuvant challenge relative to control; format: functional
[27] = Half life in monkey at 2 mg/kg, iv; format: ADME, organism-based, Macaca mulatta; design: dose 2 mg/kg, route intravenous; conditions: rhesus monkey, in vivo
[28] = Oral bioavailability in mouse at 10 mg/kg; format: ADME, organism-based; conditions: in vivo
[29] = Half life in Sprague-Dawley rat at 2 mg/kg, iv; format: ADME, organism-based; design: dose 2 mg/kg, route intravenous; conditions: in vivo
[30] = target: Proto-oncogene tyrosine-protein kinase Src (Homo sapiens, UniProt P12931); assay: Inhibition of Src by fluorescence polarization competition immunoassay
[31] = target: T1, Tyrosine-protein kinase receptor UFO (Homo sapiens, UniProt P30530); assay: Inhibition of Axl by fluorescence polarization competition immunoassay
T1 sequence (P30530 whole entry): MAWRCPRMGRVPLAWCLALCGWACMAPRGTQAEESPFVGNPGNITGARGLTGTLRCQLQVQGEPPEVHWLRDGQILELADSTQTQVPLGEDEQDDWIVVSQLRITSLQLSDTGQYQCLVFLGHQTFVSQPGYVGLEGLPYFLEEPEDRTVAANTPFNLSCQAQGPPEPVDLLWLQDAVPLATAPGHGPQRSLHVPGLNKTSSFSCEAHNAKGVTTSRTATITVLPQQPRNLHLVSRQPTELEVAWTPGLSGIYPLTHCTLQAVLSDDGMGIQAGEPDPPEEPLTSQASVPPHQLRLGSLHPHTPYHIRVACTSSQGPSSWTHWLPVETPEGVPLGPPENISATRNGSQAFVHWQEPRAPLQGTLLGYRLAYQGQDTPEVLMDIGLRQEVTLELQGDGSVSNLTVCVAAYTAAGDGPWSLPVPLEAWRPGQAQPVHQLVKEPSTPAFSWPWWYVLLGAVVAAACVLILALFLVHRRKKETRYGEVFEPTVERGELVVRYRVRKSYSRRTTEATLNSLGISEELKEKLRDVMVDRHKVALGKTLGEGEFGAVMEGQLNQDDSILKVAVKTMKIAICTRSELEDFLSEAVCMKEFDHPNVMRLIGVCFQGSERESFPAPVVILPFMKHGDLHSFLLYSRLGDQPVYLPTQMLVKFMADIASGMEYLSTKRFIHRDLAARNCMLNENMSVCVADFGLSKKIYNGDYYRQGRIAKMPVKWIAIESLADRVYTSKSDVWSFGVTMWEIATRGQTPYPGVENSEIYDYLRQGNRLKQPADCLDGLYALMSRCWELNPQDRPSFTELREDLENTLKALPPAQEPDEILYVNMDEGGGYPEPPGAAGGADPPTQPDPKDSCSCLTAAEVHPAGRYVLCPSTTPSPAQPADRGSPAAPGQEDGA

[32] = Oral bioavailability in dog at 10 mg/kg; format: ADME, organism-based, Canis lupus familiaris; conditions: in vivo
[33] = target: High affinity nerve growth factor receptor (Homo sapiens, UniProt P04629); assay: Inhibition of TrkA by fluorescence polarization competition immunoassay
[34] = Metabolic stability in monkey liver microsomes after 10 mins; format: ADME, Macaca mulatta, Microsome; conditions: rhesus monkey, read-out: Stability
[35] = Plasma concentration in Freund's complete adjuvant-induced Lewis rat arthritis model at […], po twice daily administered on day 8 post adjuvant challenge measured 7 days after last dose; format: ADME, organism-based; design: dose 0.33 mg/kg, route oral
[36] = Metabolic stability in dog liver microsomes after 10 mins; format: ADME, Canis lupus familiaris, Microsome; conditions: read-out: Stability
[37] = Cmax in monkey at 10 mg/kg, po; format: ADME, organism-based, Macaca mulatta; design: dose 10 mg/kg, route oral; conditions: rhesus monkey, in vivo

Sequence of High affinity nerve growth factor receptor (P04629 whole entry): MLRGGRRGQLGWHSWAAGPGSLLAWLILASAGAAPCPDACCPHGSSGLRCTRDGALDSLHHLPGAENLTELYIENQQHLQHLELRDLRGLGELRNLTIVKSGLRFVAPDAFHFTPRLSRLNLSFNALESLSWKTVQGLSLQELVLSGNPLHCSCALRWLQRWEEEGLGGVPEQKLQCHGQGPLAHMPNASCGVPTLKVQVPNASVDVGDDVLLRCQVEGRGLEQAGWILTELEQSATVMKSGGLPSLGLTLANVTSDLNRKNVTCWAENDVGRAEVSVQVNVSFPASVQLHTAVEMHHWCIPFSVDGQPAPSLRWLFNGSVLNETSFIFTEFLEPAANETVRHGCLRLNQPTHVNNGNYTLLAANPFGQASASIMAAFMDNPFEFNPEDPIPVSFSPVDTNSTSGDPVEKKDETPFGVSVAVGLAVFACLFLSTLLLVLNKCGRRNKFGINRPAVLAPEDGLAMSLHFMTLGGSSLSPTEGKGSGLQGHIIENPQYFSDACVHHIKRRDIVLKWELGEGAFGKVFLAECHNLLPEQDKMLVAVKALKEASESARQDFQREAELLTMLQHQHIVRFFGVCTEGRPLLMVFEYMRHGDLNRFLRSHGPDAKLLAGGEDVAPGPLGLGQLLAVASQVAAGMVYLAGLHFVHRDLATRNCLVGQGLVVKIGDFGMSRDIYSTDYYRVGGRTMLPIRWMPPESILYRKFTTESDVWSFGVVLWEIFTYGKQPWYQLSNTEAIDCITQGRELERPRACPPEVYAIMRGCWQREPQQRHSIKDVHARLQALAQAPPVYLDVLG
Sequence of Platelet-derived growth factor receptor beta (P09619 whole entry): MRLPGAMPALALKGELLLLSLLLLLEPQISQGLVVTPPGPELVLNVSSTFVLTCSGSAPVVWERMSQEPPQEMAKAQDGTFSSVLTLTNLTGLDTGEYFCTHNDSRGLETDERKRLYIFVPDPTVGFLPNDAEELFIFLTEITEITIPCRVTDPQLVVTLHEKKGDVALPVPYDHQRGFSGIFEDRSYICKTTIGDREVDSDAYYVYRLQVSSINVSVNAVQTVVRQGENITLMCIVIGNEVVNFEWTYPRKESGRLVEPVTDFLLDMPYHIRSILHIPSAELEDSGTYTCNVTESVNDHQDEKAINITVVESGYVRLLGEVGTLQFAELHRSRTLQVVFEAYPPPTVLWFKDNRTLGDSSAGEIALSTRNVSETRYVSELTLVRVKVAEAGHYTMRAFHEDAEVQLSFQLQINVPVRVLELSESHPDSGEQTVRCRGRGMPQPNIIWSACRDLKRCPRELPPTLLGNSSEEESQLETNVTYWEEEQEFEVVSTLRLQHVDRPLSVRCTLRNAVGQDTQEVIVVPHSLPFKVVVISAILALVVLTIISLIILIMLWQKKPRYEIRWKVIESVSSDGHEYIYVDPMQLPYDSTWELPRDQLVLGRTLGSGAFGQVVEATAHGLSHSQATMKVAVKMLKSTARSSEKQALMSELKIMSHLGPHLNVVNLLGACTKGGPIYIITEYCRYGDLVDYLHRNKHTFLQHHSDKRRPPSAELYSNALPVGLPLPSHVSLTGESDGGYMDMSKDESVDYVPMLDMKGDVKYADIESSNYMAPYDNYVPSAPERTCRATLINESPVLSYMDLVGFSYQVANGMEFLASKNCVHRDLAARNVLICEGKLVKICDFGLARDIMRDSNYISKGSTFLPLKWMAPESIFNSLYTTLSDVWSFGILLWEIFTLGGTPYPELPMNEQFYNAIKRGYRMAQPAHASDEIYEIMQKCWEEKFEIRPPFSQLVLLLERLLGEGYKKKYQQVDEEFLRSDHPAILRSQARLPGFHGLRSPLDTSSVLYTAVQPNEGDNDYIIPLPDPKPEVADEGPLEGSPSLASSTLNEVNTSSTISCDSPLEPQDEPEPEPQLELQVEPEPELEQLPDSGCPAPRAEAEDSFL
Sequence of Proto-oncogene tyrosine-protein kinase Src (P12931 2-536 limits assumed): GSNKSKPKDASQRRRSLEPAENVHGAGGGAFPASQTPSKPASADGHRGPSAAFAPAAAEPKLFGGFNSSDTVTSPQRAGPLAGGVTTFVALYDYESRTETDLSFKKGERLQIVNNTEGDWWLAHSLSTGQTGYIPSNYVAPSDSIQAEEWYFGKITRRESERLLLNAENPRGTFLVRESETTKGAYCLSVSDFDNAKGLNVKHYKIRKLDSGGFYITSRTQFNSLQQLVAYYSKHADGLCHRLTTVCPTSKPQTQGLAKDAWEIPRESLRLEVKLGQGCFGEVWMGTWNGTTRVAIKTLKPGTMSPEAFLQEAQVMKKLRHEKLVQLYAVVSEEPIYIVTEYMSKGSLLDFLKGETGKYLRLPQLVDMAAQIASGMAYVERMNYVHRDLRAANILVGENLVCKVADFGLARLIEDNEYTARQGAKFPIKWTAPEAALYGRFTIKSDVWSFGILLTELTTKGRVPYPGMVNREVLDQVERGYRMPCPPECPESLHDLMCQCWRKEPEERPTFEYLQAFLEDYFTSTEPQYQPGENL
Sequence of Mast/stem cell growth factor receptor Kit (P10721 whole entry): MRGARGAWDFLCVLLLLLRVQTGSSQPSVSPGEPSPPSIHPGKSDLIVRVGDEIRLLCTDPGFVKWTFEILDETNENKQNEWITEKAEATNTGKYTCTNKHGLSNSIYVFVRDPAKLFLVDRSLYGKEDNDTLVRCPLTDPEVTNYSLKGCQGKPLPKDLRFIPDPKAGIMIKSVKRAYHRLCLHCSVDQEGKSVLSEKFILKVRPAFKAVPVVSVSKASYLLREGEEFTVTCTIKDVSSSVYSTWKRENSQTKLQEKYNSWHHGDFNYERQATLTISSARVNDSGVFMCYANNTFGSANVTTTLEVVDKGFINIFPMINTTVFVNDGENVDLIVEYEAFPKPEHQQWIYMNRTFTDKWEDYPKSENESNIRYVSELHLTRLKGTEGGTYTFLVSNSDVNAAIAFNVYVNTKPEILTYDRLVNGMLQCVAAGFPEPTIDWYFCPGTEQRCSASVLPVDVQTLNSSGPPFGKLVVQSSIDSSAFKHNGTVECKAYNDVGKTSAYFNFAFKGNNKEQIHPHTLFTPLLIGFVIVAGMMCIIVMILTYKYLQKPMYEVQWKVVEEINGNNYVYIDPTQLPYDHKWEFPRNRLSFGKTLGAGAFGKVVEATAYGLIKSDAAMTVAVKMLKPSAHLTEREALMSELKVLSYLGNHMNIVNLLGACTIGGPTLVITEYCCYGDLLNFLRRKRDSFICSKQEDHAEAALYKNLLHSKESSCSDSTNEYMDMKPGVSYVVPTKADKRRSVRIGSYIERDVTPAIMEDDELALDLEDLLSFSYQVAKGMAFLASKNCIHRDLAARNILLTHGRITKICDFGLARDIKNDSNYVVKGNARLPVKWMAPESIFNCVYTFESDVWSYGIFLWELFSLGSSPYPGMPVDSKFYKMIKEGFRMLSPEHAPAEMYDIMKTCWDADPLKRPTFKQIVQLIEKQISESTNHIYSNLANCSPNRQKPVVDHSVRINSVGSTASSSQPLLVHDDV

CONC(=O)c1cn(-c2ccc3c(c2)CCC3)c2nc(Nc3ccc(C4CCN(C)CC4)cc3)ncc2c1=O
Activity [1]: Active
clearance [2]: 48.7 mL/min/kg
inhibition in vivo at 10 mg/kg [3]: 17%
bioavailability [4]: 16.7%
Activity [5]: Active
half-life [6]: 1.8 h
Activity [7]: Active
remaining at 10 min [8]: 87%
half-life [9]: 9.3 h
Cmax [10]: 1600 nM
Activity [11]: Active
bioavailability [12]: 100%
Cmax [13]: 1600 nM
concentration at 168 h [14]: 189 nM
Activity [15]: Active
IC50 [16]: 150 nM
remaining at 10 min [17]: 96%
clearance [18]: 30 mL/min/kg
Activity [19]: Non-toxic
Vd [20]: 4.3 L/kg
IC50 [21]: 6 nM
Activity [22]: Active
half-life [23]: 6.9 h
inhibition in vivo at 3 mg/kg [24]: 8%
concentration at 6 h [25]: 290 nM
inhibition in vivo at 1 mg/kg [26]: 2%
half-life [27]: 6.6 h
bioavailability [28]: 51%
half-life [29]: 4.6 h
IC50 [30]: 1400 nM
IC50 [31]: > 1000 nM
bioavailability [32]: 33%
IC50 [33]: 500 nM
remaining at 10 min [34]: 14%
concentration at 168 h [35]: 14 nM
remaining at 10 min [36]: 51%
Cmax [37]: 60 nM
